Measurements taken from patent publication US20110159507A1, “METHOD FOR DETECTING THE DRUG EFFECTS OF DNA METHYLATION-INHIBITORS” (SCHOOL JURIDICAL PERSON THE KITASATO INSTITUTE, priority 2008, published 2011).

Experiments:
[1] = test system: K562 PU.1 KD cells (PU 2-10 and PU 3-10); assay: cell viability assay (WST-8), percentages of dead cells after drug administration, PU.1 gene-knockdown cells vs control cells; format: cell-based; settings: for drug sensitivity of PU.1 gene-knockdown cells to the DNA methylation inhibitor: K562 PU.1 KD cells
Description: FIGS. 1(a) and 1(b) illustrate and show the results of establishment experiments of PU.1-knockdown lines (K562 PU.1 KD cells). That is, a PU.1 siRNA expression vector (Takara, Ohtsu, Japan) and its control vector (Takara) were introduced into K562 cells as leukemia cell lines in accordance with the method described in the document (Takahashi Set al., British Journal of Haematology, 2005 (130), p 428-436). Specifically, in the method, electroporation was employed to introduce the expression vector and its control vector into leukemia cell lines (K562 cells). The introduced cells were cultured in an RPMI medium in the presence of 1 μg/mL puromycin to select cells that constitutively express PU.1 siRNAs and isolate the cells by a limiting dilution method. The isolated control cells (Control K562) (V5 and V6) and PU.1-knockdown cells (2-10 and 3-10) (K562 PU.1 KD cells) were used to prepare proteins based on a conventional method. The proteins were subjected to SDS-PAGE electrophoresis, then transferred to a membrane, and blotted with a PU.1 antibody and β-actin useful for the estimation of protein amounts (FIG. 1(a)).
Two kinds of PU.1 gene-knockdown cells (PU 2-10 and PU 3-10) and control cells (vec 5 and vec 6) were compared for their sensitivities to 5-azadc (AZA) (% effect: percentages of dead cells after drug administration). In other words, the respective cells were seeded in a 96-well plate at a density of 2,000 cells/well, and 5-azadc (AZA) was added into the well at concentrations of 0.2, 1, 3.9, 15.6, 62.5, 250, and 1,000 nM. Then, cell viability assays were performed after 96 hours. In the assays, 10 μL of a WST-8 reagent (Dojindo, Japan) were added to a well in which 100 μL of a cell culture medium had been loaded, culture was performed in a 5% CO2 incubator at 37° C. for 2 hours, and the absorbance is then measured using a microplate reader at a wavelength of 490 nm, to thereby measure cell viability. FIG. 7 illustrates the results in terms of percentages of dead cells (% effect).

[2] = test system: K562 PU.1 OE cells (A2 and H8); assay: cell viability assay (WST-8), percentages of dead cells after drug administration, PU.1 gene-overexpressing cells vs control cells; format: cell-based
Description: FIGS. 3(a) and 3(b) illustrate and show the results of establishment experiments of PU.1-overexpressing cell lines (K562 PU.1 OE cells). That is, the PU.1 expression vector described in the literature was used (Inomata et al., Leukemia Research 30 (2006) p 659-664). The expression vector and its control vector pcDNA3.1 (Invitrogen, CA) were introduced into K562 cells as leukemia cell lines in accordance with the method described in literature (Takahashi S et al., British Journal of Haematology, 2005 (130), p 428-436). The introduced cells were cultured in an RPMI medium in the presence of 400 μg/mL Neomycin to select cells that constitutively express PU.1 and isolate the cells by a limiting dilution method. […]
Two kinds of PU.1 gene-knockdown cells (PU 2-10 and PU 3-10) and control cells (vec 5 and vec 6) were compared for their sensitivities to 5-azadc (AZA) (% effect: percentages of dead cells after drug administration). […] In the assays, 10 μL of a WST-8 reagent (Dojindo, Japan) were added to a well in which 100 μL of a cell culture medium had been loaded, culture was performed in a 5% CO2 incubator at 37° C. for 2 hours, and the absorbance is then measured using a microplate reader at a wavelength of 490 nm, to thereby measure cell viability. […]

Compound | drug sensitivity of PU.1 gene-knockdown cells to the DNA methylation inhibitor [1] | drug sensitivity of PU.1 gene-knockdown cells to the DNA methylation inhibitor ([1]; listed as 5-aza-2′-deoxycytidine) | percentages of dead cells (% effect): lower than in control cells (vec 5 and vec 6) by ([1]; PU 2-10 and PU 3-10, 0.2-1,000 nM, 96 hours, FIG. 7) | percentages of dead cells (% effect): higher than in control cells (vec 1 and vec 2) by ([2]; A2 and H8, same experiment as FIG. 7 (0.2-1,000 nM, 96 hours), FIG. 8) | drug sensitivity of PU.1 gene-overexpressing cells to the DNA methylation inhibitor ([2]; K562 PU.1 OE cells)
Nc1ncn([C@H]2C[C@H](O)[C@@H](CO)O2)c(=O)n1 [5-azadc, 5-aza-2′-deoxycytidine] | resistant and poorly sensitive | resistant | about 20% | about 20% | highly sensitive
Nc1ncn([C@@H]2O[C@H](CO)[C@@H](O)[C@H]2O)c(=O)n1 [5-azacytidine] | resistant |  |  |  | 
